Data as given in patent US20230079439A1, “Compositions and Methods for Enhancing Beta Cell Maturation, Health and Function” (THE REGENTS OF THE UNIVERSITY OF CALIFORNIA, priority 2016, published 2023).

What was measured:
[1] = system: INS-1E cells; assay: Glucose-stimulated insulin secretion (GSIS) in INS-1E cells; type: cell-based, rat; details: INS-1E cells; 2.5 mM or 16.7 mM glucose
Protocol: FIG. 3, comprising FIG. 3A through FIG. 3D, depicts the evaluation of the biological activity of HSA-112 in INS-1E cells. FIG. 3A depicts a dose-response analysis of the effect of HSA-112 on the rate of insulin secretion in INS-1E cells. The INS-1E cells were grown and treated with increasing doses of HSA-112 for 24 h, as described in Methods. Subsequently, cells were mixed with different concentrations of HSA-112, as indicated in the graph (red columns), PEG2000 (green columns), and free peptide (blue columns) and were seeded in 12-well plates. After 24 h the cells were taken to a GSIS in the presence of 2.5 mM (weak color bars) or 16.7 mM (strong color bars) glucose. FIG. 3B depicts the time-course analysis of the effect of HSA-112 on the rate of insulin secretion in INS-1E cells. The INS-1E cells were prepared for the experiment as described above with 50 μM of HSA-112, PEG2000, or free peptide. After incubation, as indicated in the graph, the cells were taken to a GSIS as described above. FIG. 3C depicts the cell protective effect of HSA-112 under oxidative stress conditions. Cells were prepared for the experiment as described in Methods. Trolox was used as a positive control at a concentration of 100 μM. The oxidative stress was induced in the tissue culture, as described in Methods. Standard MTT analysis (also described in Methods) was used for evaluating the effect of HSA-112 on cell viability. FIG. 3D depicts INS-1E cell proliferation. Cells were prepared for the experiment as described above. After 24 h the cells were colored by trypan blue and counted as described in Methods *p<0.05, n=6. MEAN±SE.
FIG. 7, comprising FIG. 7A through FIG. 7G, depicts the evaluation of the biological activity of HSA-28P in INS-1E cells. FIG. 7A depicts dose-response analysis of the effect of HSA-28P on the rate of insulin secretion in INS-1E cells. The INS-1E cells were grown and trypsinized as described in Methods. Subsequently, cells were mixed with the indicated concentrations of HSA-28P (red columns), non-relevant peptide nanoparticles (NRPNP, green columns), and naked nanoparticles (NP, blue columns) and were seeded in 12-well plates. After 24 h the cells were taken to a GSIS in the presence of 2.5 mM (weak color bars) or 16.7 mM (strong color bars) glucose. FIG. 7B depicts time-course analysis of the effect of HSA-28P on the rate of insulin secretion in INS-1E cells. The INS-1E cells were prepared for the experiment as described above with 1.34 μM of both HSA-28P or NRPNP, and 0.76 μg/ml of NP. After incubation for the time indicated in the graph, the cells were taken to a GSIS as described in Methods. FIG. 7C depicts the measurement of insulin content. The RIA-assay was performed for INS-1E lysates. FIG. 7D depicts the Effect of HSA-28P on the cells viability under oxidative stress conditions. INS-1E cells were incubated for 24 h with a medium supplemented with HSA-28P (3 μM), or HSA-28P1/2 (1.5 μM), or NPs covered by phantom random peptide (PPNP, 3 μM), or NP (0.76 μg/ml), or HSA-28 (3 μM) and trolox, as a positive antioxidant control (1 mM). After the incubation time, 50 mU/ml of glucose oxidase (GO) was added for an additional 1.15 h. Upon completion of the experiments, a standard MTT assay was conducted as described in Methods. Cell viability is presented as a percentage in comparison to non-treated cells. FIG. 7E depicts the effect of HSA-28P on the cell proliferation rate. Experiments were conducted on INS-1E cells that were seeded in 6-well plates. INS-1E cells were treated as described in Panel D. Cells were detached by trypsin and counted as described in Methods and then were visualized with a Cells Sense Live Imaging microscope. FIG. 7F depicts light microscope images of untreated cells. FIG. 7G depicts light microscope images of cells that were treated with HSA-28P. *p<0.05, n=3. MEAN±SE. […]

[2] = system: INS-1E cells; assay: Cell counting (trypan blue) / proliferation and cluster formation; type: cell-based, rat; details: 24 h
Protocol: FIG. 7, comprising FIG. 7A through FIG. 7G, depicts the evaluation of the biological activity of HSA-28P in INS-1E cells. FIG. 7A depicts dose-response analysis of the effect of HSA-28P on the rate of insulin secretion in INS-1E cells. The INS-1E cells were grown and trypsinized as described in Methods. Subsequently, cells were mixed with the indicated concentrations of HSA-28P (red columns), non-relevant peptide nanoparticles (NRPNP, green columns), and naked nanoparticles (NP, blue columns) and were seeded in 12-well plates. After 24 h the cells were taken to a GSIS in the presence of 2.5 mM (weak color bars) or 16.7 mM (strong color bars) glucose. FIG. 7B depicts time-course analysis of the effect of HSA-28P on the rate of insulin secretion in INS-1E cells. The INS-1E cells were prepared for the experiment as described above with 1.34 μM of both HSA-28P or NRPNP, and 0.76 μg/ml of NP. After incubation for the time indicated in the graph, the cells were taken to a GSIS as described in Methods. FIG. 7C depicts the measurement of insulin content. The RIA-assay was performed for INS-1E lysates. […] INS-1E cells were treated as described in Panel D. Cells were detached by trypsin and counted as described in Methods and then were visualized with a Cells Sense Live Imaging microscope. […]
Cells were detached by trypsin and colored by Trypan blue. Only uncolored cells were counted. […]

[3] = system: INS-1E cells; assay: Insulin secretion of INS-1E cells after 5 h incubation with peptidomimetic agent; type: cell-based, rat; details: INS-1 β cells
Protocol: FIG. 22, comprising FIG. 22A through FIG. 22C, depicts experimental results of incubation of INS1E cells with peptidomimetic agent. A peptidomimetic agent was designed to mimic neuroligin's binding site for neurexin. Monomers and dimers had no effect on insulin secretion. Multiple dimers were conjugated to PEG-2000 to simulate clustering (reagent HSA-112). Dimers were also clustered on nanoparticles (HSA-637). FIG. 22A depicts INS-1E cells were incubated for 5 h with HSA-112 (blue columns) or HSA-637 (purple) at different concentrations or with vehicle alone (black), washed, and then tested for insulin secretion at 3 mM glucose (striped columns) or at 20 mM glucose (solid columns). […] FIG. 22B depicts a time course: insulin secretion was analyzed after the number of hours indicated following a 5 h incubation with 100 μM HSA-112 (blue), 500 nM HSA-637 (purple) or vehicle alone (black). Incubations were with 3 mM glucose (striped columns) or 20 mM glucose (solid columns). FIG. 22C depicts microscopy where INS-1E cells were incubated with HSA-637 conjugated to a fluorescent dye (Cy5, red) and then washed. Membranes were stained with Alexa Fluor 488 (green). For better visualization, microscopy was in hypotonic saline causing the INS-1E cells to swell and become more rounded.

[4] = system: isolated mouse islets; assay: GSIS test in isolated mouse islets; type: cell-based; details: 24 h; 2.5 or 16.7 mM glucose
Protocol: Mice (6 in total) were euthanized by cervical dislocation; the mouse torso was saturated with 70% ethanol. The abdominal cavity was opened completely from anus to diaphragm. The body and tail of the pancreas were removed and separated from fat and large vessels. The pancreas was washed once with HBSS solution and cut into small pieces of approximately 2×3 mm with a scissors. After an additional wash with HBSS solution, the pieces of pancreas were placed in two 50 ml Falcon tubes containing 4 ml of a freshly prepared solution of collagenase (2 mg/ml). After vigorous shaking at 37° C. for approximately 20 min, the collagenase digestion was interrupted by adding 45 ml of ice-chilled HBSS solution. The digested pancreatic tissue was spinned down at 330×g for 3 minutes. Supernatant was removed again and an additional 45 mL of “islet media” was added and spinned down at 330×g for 3 minutes. The histopaque was decanted and the tubes were inverted to drain on an absorbent paper towel for 1 min. The pellet was resuspended in 20 ml for each tube in cold 30% Ficoll solution. […]
Frozen islets medium or lysates were thawed on ice and diluted with water (a typical dilution for the lysate was 300× and for the supernatant—5×). […] The signal was determined by a SpectraMax M5 spectrophotometer. The concentrations of insulin in the samples were normalized by the total protein determined by the BCA assay.

Molecule: QQGEFLNYD [HSA-28, short NL-2 mimetic peptide derived from the NL-4/NX-1 crystal complex]
- effect on GSIS [1]: did not increase the GSIS
- amount of cells / proliferation rate [2]: has not shown any effect on the proliferation rate
- effect on insulin secretion [3]: had no effect

Molecule: N=C(N)NCCC[C@H](N)C(=O)O [L-arginine]
- effect on GSIS in isolated mouse islets [4]: significantly raised GSIS
